The record followed here is article PMC8725837, “2-Arylquinolines as novel anticancer agents with dual EGFR/FAK kinase inhibitory activity: synthesis, biological evaluation, and molecular modelling insights” (Journal of Enzyme Inhibition and Medicinal Chemistry, 2021).

One data set has as its target T1, BTK (Homo sapiens, UniProt Q06187).
T1 construct: purchased Invitrogen/Life Technologies
Description: Z`-LYTE kinase profiling, BTK. In kind it is biochemical.

The target in another data set is T2, FRK (Homo sapiens, UniProt P42685).
T2 construct: purchased Invitrogen/Life Technologies
T2 sequence (P42685 whole entry): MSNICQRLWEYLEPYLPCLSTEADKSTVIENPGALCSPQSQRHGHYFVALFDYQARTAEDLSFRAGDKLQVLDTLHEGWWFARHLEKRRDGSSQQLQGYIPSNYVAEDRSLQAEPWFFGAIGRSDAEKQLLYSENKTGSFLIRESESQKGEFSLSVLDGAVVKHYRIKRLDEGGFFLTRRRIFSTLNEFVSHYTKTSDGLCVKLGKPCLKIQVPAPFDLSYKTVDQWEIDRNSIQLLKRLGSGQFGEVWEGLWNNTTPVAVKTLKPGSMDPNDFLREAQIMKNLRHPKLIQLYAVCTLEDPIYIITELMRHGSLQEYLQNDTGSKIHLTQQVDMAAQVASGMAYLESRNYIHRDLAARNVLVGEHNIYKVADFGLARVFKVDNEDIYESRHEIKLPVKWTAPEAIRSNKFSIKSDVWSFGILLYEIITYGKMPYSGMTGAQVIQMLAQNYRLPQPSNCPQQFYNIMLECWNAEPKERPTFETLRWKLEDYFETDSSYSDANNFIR
Description: Z`-LYTE kinase profiling, FRK. It is filed as biochemical.

The next data set addresses FAK (Homo sapiens, UniProt Q05397). Description: Z`-LYTE kinase inhibitory assay, FAK.
The subject of data set [1] is HCT-116 colorectal cancer cell line. Description: MTT antiproliferative assay, HCT-116. Background: Tetrazolium assays rely on reduction of a dye to a coloured formazan, in cell work by metabolically active cells.
Description: (§2) After the incubation of the tested compounds for 24 h, the percent growth inhibition (GI%) was calculated.
(§3) Cells were seeded at 1 × 10^4 cells/well and cultured overnight in a 96-well plate. […] Then, 150 µl DMSO was used to solubilise MTT formazan crystals. Finally, the plates were shaken, and the optical density was determined at 570 nm using ELISA plate reader. At least, three independent experiments were performed. Percentage of growth inhibition was determined as (1-[OD of treated cells/OD of control cells]). […] The IC50 values were calculated using Prism v0.8 software (GraphPad Software Inc., La Jolla, CA).
Another data set addresses T3, VEGFR-2 (Homo sapiens, UniProt P35968).
T3 construct: purchased Invitrogen/Life Technologies
Briefly: Z`-LYTE kinase profiling, VEGFR-2. In kind it is biochemical.

In another data set the target is T4, HER-2 (Homo sapiens, UniProt P04626).
T4 construct: purchased Invitrogen/Life Technologies
T4 sequence (P04626 23-1255): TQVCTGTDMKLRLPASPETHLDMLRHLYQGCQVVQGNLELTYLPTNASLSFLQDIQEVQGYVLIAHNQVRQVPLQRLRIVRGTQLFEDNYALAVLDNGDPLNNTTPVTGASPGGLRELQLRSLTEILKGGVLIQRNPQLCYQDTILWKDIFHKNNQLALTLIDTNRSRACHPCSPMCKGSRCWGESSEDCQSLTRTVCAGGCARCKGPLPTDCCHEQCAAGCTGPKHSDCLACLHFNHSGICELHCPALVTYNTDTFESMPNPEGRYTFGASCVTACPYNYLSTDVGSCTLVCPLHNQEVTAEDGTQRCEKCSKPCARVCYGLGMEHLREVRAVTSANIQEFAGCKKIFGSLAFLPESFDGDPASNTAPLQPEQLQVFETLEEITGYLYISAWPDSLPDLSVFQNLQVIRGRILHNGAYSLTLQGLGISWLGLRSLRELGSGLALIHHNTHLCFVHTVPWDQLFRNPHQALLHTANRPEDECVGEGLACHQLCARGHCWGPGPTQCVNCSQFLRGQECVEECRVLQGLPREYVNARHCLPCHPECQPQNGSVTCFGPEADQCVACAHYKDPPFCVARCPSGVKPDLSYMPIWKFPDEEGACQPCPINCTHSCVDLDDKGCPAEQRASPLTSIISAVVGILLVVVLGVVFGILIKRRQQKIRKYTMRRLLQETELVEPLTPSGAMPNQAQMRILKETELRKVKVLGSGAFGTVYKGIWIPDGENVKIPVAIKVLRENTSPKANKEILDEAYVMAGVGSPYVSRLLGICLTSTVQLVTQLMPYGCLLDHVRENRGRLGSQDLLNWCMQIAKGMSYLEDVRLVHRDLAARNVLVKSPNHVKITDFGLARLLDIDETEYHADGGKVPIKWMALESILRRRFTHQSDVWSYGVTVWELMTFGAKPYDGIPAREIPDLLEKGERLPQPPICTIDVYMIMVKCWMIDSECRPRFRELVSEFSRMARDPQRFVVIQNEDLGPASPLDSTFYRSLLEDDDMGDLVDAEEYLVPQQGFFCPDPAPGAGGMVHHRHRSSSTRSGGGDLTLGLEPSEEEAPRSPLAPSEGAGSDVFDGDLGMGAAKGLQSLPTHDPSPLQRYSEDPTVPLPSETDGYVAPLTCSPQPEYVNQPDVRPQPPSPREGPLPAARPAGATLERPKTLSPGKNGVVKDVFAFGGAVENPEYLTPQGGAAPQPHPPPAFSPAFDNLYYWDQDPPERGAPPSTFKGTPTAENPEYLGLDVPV
Description: Z`-LYTE kinase profiling, HER-2. In kind it is biochemical.

Data set [2] deals with MDMBA-231 breast cancer cell line. Description: MTT antiproliferative assay, MDMBA-231. In kind it is cell-based. The conditions noted are these: 10 µM, 24 h. As for the experimental part:
(§1) At least, three independent experiments were performed.

In a further data set the target is T5, c-Src (Homo sapiens, UniProt P12931).
T5 construct: purchased Invitrogen/Life Technologies
T5 sequence (P12931 whole entry): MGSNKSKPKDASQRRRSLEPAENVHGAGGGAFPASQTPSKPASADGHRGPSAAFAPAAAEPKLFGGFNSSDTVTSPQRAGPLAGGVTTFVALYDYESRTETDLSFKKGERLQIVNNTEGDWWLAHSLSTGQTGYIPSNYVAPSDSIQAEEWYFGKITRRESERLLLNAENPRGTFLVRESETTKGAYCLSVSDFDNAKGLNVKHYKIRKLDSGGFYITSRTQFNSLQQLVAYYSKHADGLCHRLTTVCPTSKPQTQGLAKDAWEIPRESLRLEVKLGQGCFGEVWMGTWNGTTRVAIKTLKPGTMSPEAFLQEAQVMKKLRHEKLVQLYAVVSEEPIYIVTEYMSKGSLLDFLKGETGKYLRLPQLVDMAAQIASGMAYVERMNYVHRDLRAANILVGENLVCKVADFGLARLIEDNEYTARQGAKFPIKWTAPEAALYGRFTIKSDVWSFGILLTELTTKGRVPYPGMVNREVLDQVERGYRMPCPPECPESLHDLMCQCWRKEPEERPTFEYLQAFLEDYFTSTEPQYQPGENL
Description: Z`-LYTE kinase profiling, c-Src. It is filed as biochemical.

For data set [3], the system named is DLD-1 colorectal cancer cell line. Briefly: MTT antiproliferative assay, DLD-1.
Description: as §2, §3
The next data set concerns the target EGFR (Homo sapiens, UniProt P00533). Briefly: Z`-LYTE kinase inhibitory assay, EGFR.
Data set [4] has as its system DLD-1 colorectal cancer cell line. Description: Annexin V-FITC/propidium iodide apoptosis assay (AV/PI). It is filed as cell-based. The conditions noted are these: 3 µM, 24 h; control 7%. The procedure: Also, compounds 6f, 6i, 16d, and 20f exerted potential apoptotic effect elevating the total percentage of apoptotic cells to 84.33, 71.66, 51.66, and 80.66%, respectively.
Flow cytometric analysis was conducted using FACS Calibur flow cytometer (BD Biosciences, San Jose, CA, USA).

The subject of data set [5] is MCF-7 breast cancer cell line. Briefly: MTT antiproliferative assay, MCF-7. In kind it is cell-based. As to conditions: 10 µM, 24 h. The procedure:
as §1

A further data set addresses T6, VEGFR-1 (Homo sapiens, UniProt P17948).
T6 construct: purchased Invitrogen/Life Technologies
Description: Z`-LYTE kinase profiling, VEGFR-1. It is filed as biochemical.

The next data set concerns the target T7, recombinant human TOP1 (Homo sapiens, UniProt P11387).
T7 sequence (P11387 1-765): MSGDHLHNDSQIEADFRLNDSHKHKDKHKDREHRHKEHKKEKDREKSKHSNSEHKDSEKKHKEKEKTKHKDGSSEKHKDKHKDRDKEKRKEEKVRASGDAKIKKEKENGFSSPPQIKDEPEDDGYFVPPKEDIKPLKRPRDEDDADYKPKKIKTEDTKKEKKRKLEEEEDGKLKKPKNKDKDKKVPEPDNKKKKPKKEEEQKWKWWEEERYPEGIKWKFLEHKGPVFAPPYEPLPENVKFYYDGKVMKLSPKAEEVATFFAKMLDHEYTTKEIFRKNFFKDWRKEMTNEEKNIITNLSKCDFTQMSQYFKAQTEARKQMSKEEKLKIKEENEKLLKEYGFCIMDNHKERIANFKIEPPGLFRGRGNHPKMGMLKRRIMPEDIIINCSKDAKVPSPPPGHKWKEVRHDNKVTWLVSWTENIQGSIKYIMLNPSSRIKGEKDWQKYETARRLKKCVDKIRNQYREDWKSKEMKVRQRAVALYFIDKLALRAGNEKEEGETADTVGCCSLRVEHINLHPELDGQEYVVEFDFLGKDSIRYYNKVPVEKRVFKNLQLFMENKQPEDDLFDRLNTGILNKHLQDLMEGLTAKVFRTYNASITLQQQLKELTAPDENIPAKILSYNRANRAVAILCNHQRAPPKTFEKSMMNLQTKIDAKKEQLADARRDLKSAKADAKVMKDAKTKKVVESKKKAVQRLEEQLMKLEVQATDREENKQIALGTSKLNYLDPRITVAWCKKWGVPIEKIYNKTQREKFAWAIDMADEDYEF
Briefly: Topoisomerase I-mediated DNA cleavage assay. As to conditions: tested at 0.1, 1, 10, 100 µM.

In data set [6] the test system is HeLa cervical cancer cell line. Briefly: MTT antiproliferative assay, HeLa. In kind it is cell-based. As to conditions: 10 µM, 24 h. The procedure:
as §1

For another data set, the target named is T8, IGF-1R (Homo sapiens, UniProt P08069).
T8 construct: purchased Invitrogen/Life Technologies
Briefly: Z`-LYTE kinase profiling, IGF-1R. In kind it is biochemical.

What is called melting point is the temperature of the solid-liquid transition.

T1 sequence (Q06187 whole entry): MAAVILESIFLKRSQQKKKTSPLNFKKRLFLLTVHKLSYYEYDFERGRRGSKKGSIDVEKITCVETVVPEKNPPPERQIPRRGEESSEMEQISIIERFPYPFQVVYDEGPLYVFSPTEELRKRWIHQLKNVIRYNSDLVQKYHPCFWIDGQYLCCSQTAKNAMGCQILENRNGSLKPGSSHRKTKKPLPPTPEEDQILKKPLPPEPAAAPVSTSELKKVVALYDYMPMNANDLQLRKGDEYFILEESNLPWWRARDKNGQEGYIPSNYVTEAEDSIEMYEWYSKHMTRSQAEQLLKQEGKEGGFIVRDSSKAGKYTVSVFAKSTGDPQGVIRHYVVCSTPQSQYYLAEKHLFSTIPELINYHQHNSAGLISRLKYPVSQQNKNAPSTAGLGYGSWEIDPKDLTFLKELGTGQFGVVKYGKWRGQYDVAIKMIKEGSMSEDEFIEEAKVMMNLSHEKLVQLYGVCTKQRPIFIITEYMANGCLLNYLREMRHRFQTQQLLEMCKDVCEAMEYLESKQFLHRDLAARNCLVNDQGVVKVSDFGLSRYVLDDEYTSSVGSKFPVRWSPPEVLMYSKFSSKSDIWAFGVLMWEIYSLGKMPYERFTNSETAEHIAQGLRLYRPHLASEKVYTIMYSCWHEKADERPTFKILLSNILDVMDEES
T3 sequence (P35968 20-1356): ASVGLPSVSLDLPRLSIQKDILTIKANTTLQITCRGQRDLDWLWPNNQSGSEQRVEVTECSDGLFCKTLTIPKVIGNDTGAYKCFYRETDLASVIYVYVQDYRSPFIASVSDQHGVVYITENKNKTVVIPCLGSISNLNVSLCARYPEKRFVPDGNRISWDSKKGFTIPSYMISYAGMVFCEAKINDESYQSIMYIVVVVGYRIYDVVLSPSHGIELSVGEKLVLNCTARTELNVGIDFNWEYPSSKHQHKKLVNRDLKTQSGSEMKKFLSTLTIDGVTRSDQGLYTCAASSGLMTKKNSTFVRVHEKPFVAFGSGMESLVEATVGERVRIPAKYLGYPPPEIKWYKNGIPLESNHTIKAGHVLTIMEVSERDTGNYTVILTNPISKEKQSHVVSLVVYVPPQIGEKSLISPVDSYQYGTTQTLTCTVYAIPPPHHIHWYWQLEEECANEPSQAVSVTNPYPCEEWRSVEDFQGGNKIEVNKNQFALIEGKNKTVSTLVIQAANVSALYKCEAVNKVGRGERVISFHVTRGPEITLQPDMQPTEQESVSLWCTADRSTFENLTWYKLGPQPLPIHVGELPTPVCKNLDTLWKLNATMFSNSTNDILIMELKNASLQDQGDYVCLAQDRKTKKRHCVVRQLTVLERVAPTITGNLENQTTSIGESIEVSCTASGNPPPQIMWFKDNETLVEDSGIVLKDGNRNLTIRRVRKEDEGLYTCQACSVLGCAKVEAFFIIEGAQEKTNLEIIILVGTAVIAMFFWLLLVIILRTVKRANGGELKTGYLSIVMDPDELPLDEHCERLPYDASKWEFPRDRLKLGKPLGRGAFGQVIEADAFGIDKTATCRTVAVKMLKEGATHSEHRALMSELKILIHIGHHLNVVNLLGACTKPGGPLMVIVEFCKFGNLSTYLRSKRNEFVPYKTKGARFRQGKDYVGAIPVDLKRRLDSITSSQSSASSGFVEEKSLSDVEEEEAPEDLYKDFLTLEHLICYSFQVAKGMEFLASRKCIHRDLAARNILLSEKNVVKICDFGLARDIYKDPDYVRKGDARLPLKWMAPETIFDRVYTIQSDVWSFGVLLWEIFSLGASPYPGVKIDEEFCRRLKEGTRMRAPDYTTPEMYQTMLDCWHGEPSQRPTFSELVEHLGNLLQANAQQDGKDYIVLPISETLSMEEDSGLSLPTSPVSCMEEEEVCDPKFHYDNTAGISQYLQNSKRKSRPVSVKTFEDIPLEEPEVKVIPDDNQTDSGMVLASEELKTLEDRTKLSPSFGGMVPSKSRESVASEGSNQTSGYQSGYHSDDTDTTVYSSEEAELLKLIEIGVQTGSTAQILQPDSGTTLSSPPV

Compound `Fc1ccc(-c2cc(OCCCN3CCOCC3)c3cc(Br)ccc3n2)cc1` [16d, 4-(3-((6-bromo-2-(4-fluorophenyl)quinolin-4-yl)oxy)propyl)morpholine] showed a melting point of 132 to 134 °C. Also, on BTK, the IC50 is 2.1 µM. The compound also had an IC50 against FRK of 1.73 µM. Besides, the IC50 against FAK turned out to be 0.0174 ± 0.00215 µM. In addition, the “GI% HCT-116” value in [1] (10 µM, 24 h, MTT) is reported as 97.48%. In addition, in [1] (Homo sapiens, HCT-116, 24 h, read-out: IC50 HCT-116 (half maximal growth inhibitory concentration)), the IC50 came out at 2.43 ± 0.71 µM. This compound registered an IC50 on VEGFR-2 of 4.69 µM. The IC50 on HER-2 is 0.358 µM. Moreover, in [2], the “GI% MDMBA-231” value is reported as 80.24%. At c-Src, this compound registered an IC50 of 3.9 µM. In [3] (10 µM, 24 h, MTT), the “GI% DLD1” value came to 90.11%. Further, the IC50 in [3] (Homo sapiens, DLD-1, 24 h, read-out: IC50 DLD1 (half maximal growth inhibitory concentration)) came to 2.18 ± 0.52 µM. The “fold superior activity compared to Gefitinib, DLD-1” value in [3] (from IC50 values) is recorded as 4 fold. The same compound yielded an IC50 on EGFR of 0.035 ± 0.00264 µM. The “total percentage of AV positive apoptotic DLD-1 cells” value in data set [4] came out at 51.66%. In addition, the “GI% MCF-7” value in [5] was determined as 86.38%. In addition, the IC50 against VEGFR-1 amounted to 1.77 µM. Besides, the “TOP1 inhibitory activity (semiquantitative score relative to 1 µM CPT)” value at recombinant human TOP1 was found to be 0. In [6], the “GI% Hela” value worked out at 85.67%. For the same compound, the IC50 at IGF-1R was 2.23 µM.
